Measured values taken from PMC5218480 (PLoS ONE, 2017).

System: MV-4-11 cells
Test: Gene expression microarray analysis (Affymetrix PrimeView) and GSEA
Format: cell-based, human
Set-up: RFU PODN (11730768_x_at) / Fold change /veh PODN (11730768_x_at) / RFU LINC00158 (11744669_a_at) / Fold change /veh LINC00158 (11744669_a_at) / RFU DUSP10 (11751237_a_at) / Fold change /veh DUSP10 (11751237_a_at) / RFU ID3 (11757404_x_at) / Fold change /veh ID3 (11757404_x_at) / RFU PLEKHG5 (11737974_s_at) / Fold change /veh PLEKHG5 (11737974_s_at) / RFU LRRC4B (11730491_at) / Fold change /veh LRRC4B (11730491_at) / RFU GIMAP4 (11747438_a_at) / Fold change /veh GIMAP4 (11747438_a_at) / RFU KRT8 (11758183_x_at) / Fold change /veh KRT8 (11758183_x_at) / RFU CNN1 (11734310_a_at) / Fold change /veh CNN1 (11734310_a_at) / RFU VPS37D (11726825_at) / Fold change /veh VPS37D (11726825_at) / RFU C10orf10 (11716522_x_at) / Fold change /veh C10orf10 (11716522_x_at) / RFU KIR2DL2 /// KIR2DL4 /// KIR2DL5A /// KIR2DL5B /// KIR2DS1 /// KIR2DS2 /// KIR2DS3 /// KIR2DS4 /// KIR3DL3 /// KIR3DL3 /// KIR3DS1 (11738374_at) / Fold change /veh KIR2DL2 /// KIR2DL4 /// KIR2DL5A /// KIR2DL5B /// KIR2DS1 /// KIR2DS2 /// KIR2DS3 /// KIR2DS4 /// KIR3DL3 /// KIR3DL3 /// KIR3DS1 (11738374_at) / RFU C1QL1 (11718748_at) / Fold change /veh C1QL1 (11718748_at) / RFU TMPRSS4 (11747572_a_at) / Fold change /veh TMPRSS4 (11747572_a_at) / RFU HAMP (11756126_x_at) / Fold change /veh HAMP (11756126_x_at) / RFU RNFT2 (11725882_a_at) / Fold change /veh RNFT2 (11725882_a_at) / RFU NR4A2 (11747474_a_at) / Fold change /veh NR4A2 (11747474_a_at) / RFU ABCC12 (11746883_a_at) / Fold change /veh ABCC12 (11746883_a_at) / RFU TMEM136 (11760407_x_at) / Fold change /veh TMEM136 (11760407_x_at) / RFU CLDN22 /// WWC2 (11732394_at) / Fold change /veh CLDN22 /// WWC2 (11732394_at) / RFU HLA-DPB1 (11760878_x_at) / Fold change /veh HLA-DPB1 (11760878_x_at) / RFU SPINT1 (11716480_a_at) / Fold change /veh SPINT1 (11716480_a_at) / RFU GAP43 (11754022_s_at) / Fold change /veh GAP43 (11754022_s_at) / RFU A4GNT (11735810_at) / Fold change /veh A4GNT (11735810_at) / RFU PRB3 (11715151_x_at) / Fold change /veh PRB3 (11715151_x_at) / RFU TUBB4B (11761932_at) / Fold change /veh TUBB4B (11761932_at) / RFU CAPN14 (11732068_a_at) / Fold change /veh CAPN14 (11732068_a_at) / RFU TMCC2 (11721928_a_at) / Fold change /veh TMCC2 (11721928_a_at) / RFU IRGQ (11745062_a_at) / Fold change /veh IRGQ (11745062_a_at) / RFU FAM174B (11720279_a_at) / Fold change /veh FAM174B (11720279_a_at) / RFU TMPRSS4 (11748680_a_at) / Fold change /veh TMPRSS4 (11748680_a_at) / RFU FAM212B (11763350_a_at) / Fold change /veh FAM212B (11763350_a_at) / RFU PLEKHG5 (11743358_a_at) / Fold change /veh PLEKHG5 (11743358_a_at) / RFU ZSCAN30 (11745921_a_at) / Fold change /veh ZSCAN30 (11745921_a_at) / RFU CMKLR1 (11741424_a_at) / Fold change /veh CMKLR1 (11741424_a_at) / RFU LOC101060620 /// MAPK8IP1 (11723275_at) / Fold change /veh LOC101060620 /// MAPK8IP1 (11723275_at) / RFU SPTSSB (11747773_x_at) / Fold change /veh SPTSSB (11747773_x_at) / RFU PRSS12 (11739890_at) / Fold change /veh PRSS12 (11739890_at) / RFU BIN1 (11741810_x_at) / Fold change /veh BIN1 (11741810_x_at) / RFU WNT11 (11732464_a_at) / Fold change /veh WNT11 (11732464_a_at) / RFU C10orf10 (11716521_a_at) / Fold change /veh C10orf10 (11716521_a_at) / RFU C5orf56 (11738089_at) / Fold change /veh C5orf56 (11738089_at) / RFU CYB561 (11721691_x_at) / Fold change /veh CYB561 (11721691_x_at) / RFU ANKRD19P (11752326_a_at) / Fold change /veh ANKRD19P (11752326_a_at) / RFU OR2T12 /// OR2T33 /// OR2T8 (11738714_s_at) / Fold change /veh OR2T12 /// OR2T33 /// OR2T8 (11738714_s_at) / RFU VCAN (11748164_a_at) / Fold change /veh VCAN (11748164_a_at) / RFU JSRP1 (11732532_at) / Fold change /veh JSRP1 (11732532_at) / RFU KRTAP10-11 (11738290_x_at) / Fold change /veh KRTAP10-11 (11738290_x_at) / RFU MYO3A (11730013_a_at) / Fold change /veh MYO3A (11730013_a_at) / RFU EBF3 (11725865_a_at) / Fold change /veh EBF3 (11725865_a_at) / RFU CAMK2N1 (11719241_x_at) / Fold change /veh CAMK2N1 (11719241_x_at) / RFU C5orf56 (11738088_a_at) / Fold change /veh C5orf56 (11738088_a_at) / RFU OLFML3 (11715873_a_at) / Fold change /veh OLFML3 (11715873_a_at) / RFU LOC100653217 /// NTM (11731650_a_at) / Fold change /veh LOC100653217 /// NTM (11731650_a_at) / RFU MAPK11 (11762145_a_at) / Fold change /veh MAPK11 (11762145_a_at) / RFU FIZ1 (11724087_x_at) / Fold change /veh FIZ1 (11724087_x_at) / RFU OASL (11726364_x_at) / Fold change /veh OASL (11726364_x_at) / RFU SOX15 (11748057_x_at) / Fold change /veh SOX15 (11748057_x_at) / RFU CD79A (11719716_a_at) / Fold change /veh CD79A (11719716_a_at) / RFU HIST1H1D (11736915_at) / Fold change /veh HIST1H1D (11736915_at) / RFU CASKIN2 (11723855_a_at) / Fold change /veh CASKIN2 (11723855_a_at) / RFU LOC730098 (11760151_x_at) / Fold change /veh LOC730098 (11760151_x_at) / RFU OR4N2 (11742367_at) / Fold change /veh OR4N2 (11742367_at) / RFU PRRT2 (11749266_a_at) / Fold change /veh PRRT2 (11749266_a_at) / RFU SNX32 (11753110_a_at) / Fold change /veh SNX32 (11753110_a_at) / RFU CDHR5 (11726645_a_at) / Fold change /veh CDHR5 (11726645_a_at) / RFU RCAN1 (11760418_a_at) / Fold change /veh RCAN1 (11760418_a_at) / RFU FAM167A (11723789_a_at) / Fold change /veh FAM167A (11723789_a_at) / RFU FAM26E (11764081_at) / Fold change /veh FAM26E (11764081_at) / RFU ISYNA1 (11749810_s_at) / Fold change /veh ISYNA1 (11749810_s_at) / RFU ACY1 (11761880_at) / Fold change /veh ACY1 (11761880_at) / RFU 11764098_at / Fold change /veh 11764098_at / RFU SAMD14 (11745864_x_at) / Fold change /veh SAMD14 (11745864_x_at) / RFU NPB (11741838_a_at) / Fold change /veh NPB (11741838_a_at) / RFU TMPRSS6 (11731388_a_at) / Fold change /veh TMPRSS6 (11731388_a_at) / RFU KRTAP10-2 (11738614_at) / Fold change /veh KRTAP10-2 (11738614_at) / RFU ARHGAP8 /// PRR5-ARHGAP8 (11727945_x_at) / Fold change /veh ARHGAP8 /// PRR5-ARHGAP8 (11727945_x_at) / RFU KRTAP5-7 /// NADSYN1 (11734609_at) / Fold change /veh KRTAP5-7 /// NADSYN1 (11734609_at) / RFU RASL12 (11751679_a_at) / Fold change /veh RASL12 (11751679_a_at) / RFU CDKN2B (11736163_a_at) / Fold change /veh CDKN2B (11736163_a_at) / RFU PRF1 (11729649_at) / Fold change /veh PRF1 (11729649_at) / RFU, ZNF638 /// ZNF638-IT1 / Fold change vs veh, ZNF638 /// ZNF638-IT1 / RFU, PANK3 / Fold change vs veh, PANK3 / RFU, SH3YL1 / Fold change vs veh, SH3YL1 / RFU, ZEB2 / Fold change vs veh, ZEB2 / RFU, NRIP1 / Fold change vs veh, NRIP1 / RFU, PTTG1IP / Fold change vs veh, PTTG1IP / RFU, CAPN2 / Fold change vs veh, CAPN2 / RFU, MED14 / Fold change vs veh, MED14 / RFU, SNORA58 / Fold change vs veh, SNORA58 / RFU, C1orf63 / Fold change vs veh, C1orf63 / RFU, LRRFIP1 / Fold change vs veh, LRRFIP1 / RFU, NDUFAF7 / Fold change vs veh, NDUFAF7 / RFU, SLC12A2 / Fold change vs veh, SLC12A2 / RFU, IBTK / Fold change vs veh, IBTK / RFU, ESF1 / Fold change vs veh, ESF1 / Fold change vs veh, TMEM50B / RFU, TAOK1 / Fold change vs veh, TAOK1 / RFU, ACBD3 / Fold change vs veh, ACBD3 / RFU, TMA16 / Fold change vs veh, TMA16 / RFU, RWDD3 / Fold change vs veh, RWDD3 / RFU, BCAT1 / Fold change vs veh, BCAT1 / RFU, EDEM3 / Fold change vs veh, EDEM3 / RFU, TMEM33 / Fold change vs veh, TMEM33 / RFU, WDR75 / Fold change vs veh, WDR75 / RFU, AHCTF1 / Fold change vs veh, AHCTF1 / RFU, TFRC / Fold change vs veh, TFRC / RFU, ZDHHC17 / Fold change vs veh, ZDHHC17 / RFU, NOM1 / Fold change vs veh, NOM1 / RFU, ARL8B / Fold change vs veh, ARL8B / RFU, ZBTB11 / Fold change vs veh, ZBTB11 / RFU, TAMM41 / Fold change vs veh, TAMM41 / RFU, KIAA1704 /// LOC100996395 / Fold change vs veh, KIAA1704 /// LOC100996395 / RFU, ING1 / Fold change vs veh, ING1 / RFU, TRMT61B / Fold change vs veh, TRMT61B / RFU, FUBP3 / Fold change vs veh, FUBP3 / RFU, TP53 / Fold change vs veh, TP53 / RFU, TNKS2 / Fold change vs veh, TNKS2 / RFU, ZFP14 / Fold change vs veh, ZFP14 / RFU, ACTR2 / Fold change vs veh, ACTR2 / RFU, PPP3R1 / Fold change vs veh, PPP3R1 / RFU, PIK3R1 / Fold change vs veh, PIK3R1 / RFU, HNRNPA1 / Fold change vs veh, HNRNPA1 / RFU, RNF170 / Fold change vs veh, RNF170 / RFU, ZNF28 / Fold change vs veh, ZNF28 / RFU, RNGTT / Fold change vs veh, RNGTT / RFU, OGT / Fold change vs veh, OGT / RFU, BRD1 / Fold change vs veh, BRD1 / RFU, MARS / Fold change vs veh, MARS / RFU, ZNF655 / Fold change vs veh, ZNF655 / RFU, FAHD1 / Fold change vs veh, FAHD1 / RFU, BDP1 / Fold change vs veh, BDP1 / RFU, LRRCC1 / Fold change vs veh, LRRCC1 / RFU, ARID1A / Fold change vs veh, ARID1A / RFU, ZNF146 / Fold change vs veh, ZNF146 / RFU, ZNF330 / Fold change vs veh, ZNF330 / RFU, GPN3 / Fold change vs veh, GPN3 / RFU, C9orf123 / Fold change vs veh, C9orf123 / RFU, N4BP2L2 / Fold change vs veh, N4BP2L2 / RFU, ARFIP1 / Fold change vs veh, ARFIP1 / RFU, FAM179B / Fold change vs veh, FAM179B / RFU, BCL10 / Fold change vs veh, BCL10 / RFU, UHRF1BP1L / Fold change vs veh, UHRF1BP1L / RFU, BET1 / Fold change vs veh, BET1 / RFU, CNOT2 / Fold change vs veh, CNOT2 / RFU, ZNF268 / Fold change vs veh, ZNF268 / Fold change vs veh, ZNF507 / RFU, DGCR2 / Fold change vs veh, DGCR2 / RFU, WDSUB1 / Fold change vs veh, WDSUB1 / Fold change vs veh, HSP90B1 /// MIR3652 / RFU, ADSS / Fold change vs veh, ADSS / RFU, GK / Fold change vs veh, GK / RFU, ZNF148 / Fold change vs veh, ZNF148 / RFU, TAF9 / Fold change vs veh, TAF9 / RFU, SLC1A5 / Fold change vs veh, SLC1A5 / RFU, SLMO2 / Fold change vs veh, SLMO2 / RFU, ABCC4 / Fold change vs veh, ABCC4 / RFU, LOC101060439 /// RAP1B / Fold change vs veh, LOC101060439 /// RAP1B / RFU, RFX7 / Fold change vs veh, RFX7 / RFU, GTPBP10 / Fold change vs veh, GTPBP10 / RFU, CNEP1R1 / Fold change vs veh, CNEP1R1 / RFU, BIVM-ERCC5 /// ERCC5 / Fold change vs veh, BIVM-ERCC5 /// ERCC5 / RFU, ILF3 / Fold change vs veh, ILF3 / RFU 11762660_at / Fold change /veh 11762660_at / RFU VCAN (11757783_s_at) / Fold change /veh VCAN (11757783_s_at) / RFU DDX43 (11728927_at) / Fold change /veh DDX43 (11728927_at) / RFU KRT8 (11758188_x_at) / Fold change /veh KRT8 (11758188_x_at) / RFU NKD1 (11759106_at) / Fold change /veh NKD1 (11759106_at) / RFU SRD5A1 (11742802_a_at) / Fold change /veh SRD5A1 (11742802_a_at) / RFU TPSAB1 /// TPSB2 (11721975_s_at) / Fold change /veh TPSAB1 /// TPSB2 (11721975_s_at) / RFU GSTM3 (11746129_a_at) / Fold change /veh GSTM3 (11746129_a_at) / RFU IL23R (11737362_x_at) / Fold change /veh IL23R (11737362_x_at) / RFU TMEM51 (11727254_a_at) / Fold change /veh TMEM51 (11727254_a_at) / RFU PIWIL2 (11732686_x_at) / Fold change /veh PIWIL2 (11732686_x_at) / RFU ORM1 (11744905_x_at) / Fold change /veh ORM1 (11744905_x_at) / RFU CCDC152 (11743942_at) / Fold change /veh CCDC152 (11743942_at) / RFU ECM1 (11717891_a_at) / Fold change /veh ECM1 (11717891_a_at) / RFU IL23R (11748794_a_at) / Fold change /veh IL23R (11748794_a_at) / RFU TNFAIP8L3 (11732012_x_at) / Fold change /veh TNFAIP8L3 (11732012_x_at) / RFU MBOAT4 (11741988_at) / Fold change /veh MBOAT4 (11741988_at) / RFU 11764193_at / Fold change /veh 11764193_at / RFU TMEM53 (11763286_at) / Fold change /veh TMEM53 (11763286_at) / RFU MAGEB2 (11727129_at) / Fold change /veh MAGEB2 (11727129_at) / RFU TMEM200A (11744735_a_at) / Fold change /veh TMEM200A (11744735_a_at) / RFU CCDC152 (11751479_a_at) / Fold change /veh CCDC152 (11751479_a_at) / RFU FAM211A (11726209_a_at) / Fold change /veh FAM211A (11726209_a_at) / RFU RGS16 (11746705_a_at) / Fold change /veh RGS16 (11746705_a_at) / RFU VCAN (11755009_s_at) / Fold change /veh VCAN (11755009_s_at) / RFU RHOB (11743442_s_at) / Fold change /veh RHOB (11743442_s_at) / RFU RGS16 (11720943_a_at) / Fold change /veh RGS16 (11720943_a_at) / RFU RGS16 (11720944_at) / Fold change /veh RGS16 (11720944_at) / RFU, VPS4B / Fold change vs veh, VPS4B / RFU, CREB1 / Fold change vs veh, CREB1 / RFU, DNAJC13 / Fold change vs veh, DNAJC13 / RFU, GNAQ / Fold change vs veh, GNAQ / RFU, CDK5R1 / Fold change vs veh, CDK5R1 / RFU, ZRANB3 / Fold change vs veh, ZRANB3 / RFU, CUL4A / Fold change vs veh, CUL4A / RFU, CCNY / Fold change vs veh, CCNY / RFU, UFL1 / Fold change vs veh, UFL1 / RFU, COG3 / Fold change vs veh, COG3 / RFU, DIAPH2 / Fold change vs veh, DIAPH2 / RFU, SKA2 / Fold change vs veh, SKA2 / RFU, AFF3 / Fold change vs veh, AFF3 / RFU, LMF1 / Fold change vs veh, LMF1 / RFU, IPO11 / Fold change vs veh, IPO11 / RFU, DFFB / Fold change vs veh, DFFB / RFU, FOXP1 / Fold change vs veh, FOXP1 / RFU, CARD8 / Fold change vs veh, CARD8 / RFU, STRN3 / Fold change vs veh, STRN3 / RFU, ADK / Fold change vs veh, ADK / RFU, RASSF2 / Fold change vs veh, RASSF2 / RFU, WIPF1 / Fold change vs veh, WIPF1 / RFU, LARP1B / Fold change vs veh, LARP1B / RFU, RASA1 / Fold change vs veh, RASA1 / RFU, RB1 / Fold change vs veh, RB1 / RFU, PPFIA1 / Fold change vs veh, PPFIA1 / RFU, MAT2A / Fold change vs veh, MAT2A / RFU, CCT5 / Fold change vs veh, CCT5 / RFU, WDR92 / Fold change vs veh, WDR92 / RFU, CUX1 / Fold change vs veh, CUX1 / RFU, TTC7A / Fold change vs veh, TTC7A / RFU, TMEM135 / Fold change vs veh, TMEM135 / RFU, DEPTOR / Fold change vs veh, DEPTOR / RFU, CPM / Fold change vs veh, CPM / RFU, DNAJB6 / Fold change vs veh, DNAJB6 / RFU, CACNA2D3 / Fold change vs veh, CACNA2D3 / RFU, DTX4 / Fold change vs veh, DTX4 / RFU, TFCP2 / Fold change vs veh, TFCP2 / RFU, GMCL1 /// GMCL1P1 / Fold change vs veh, GMCL1 /// GMCL1P1 / RFU, AEBP2 / Fold change vs veh, AEBP2 / RFU, SNHG1 /// SNORD22 /// SNORD25 /// SNORD26 /// SNORD27 /// SNORD28 /// SNORD29 /// SNORD31 / Fold change vs veh, SNHG1 /// SNORD22 /// SNORD25 /// SNORD26 /// SNORD27 /// SNORD28 /// SNORD29 /// SNORD31 / Fold change (Aza/veh), C12orf56 (ProbeSet 11735607_a_at) / Fold change (ACY-1035/veh), C12orf56 (ProbeSet 11735607_a_at) / Fold change (Aza/veh), FGFR1OP (ProbeSet 11751329_s_at) / Fold change (ACY-1035/veh), FGFR1OP (ProbeSet 11751329_s_at) / Fold change (Aza/veh), VPS36 (ProbeSet 11739960_a_at) / Fold change (ACY-1035/veh), VPS36 (ProbeSet 11739960_a_at) / RFU SYPL1 (11715823_x_at) / Fold change /veh SYPL1 (11715823_x_at) / RFU IGFBP7 (11715501_s_at) / Fold change /veh IGFBP7 (11715501_s_at) / RFU REEP3 (11722064_at) / Fold change /veh REEP3 (11722064_at) / RFU IGLL1 (11728026_x_at) / Fold change /veh IGLL1 (11728026_x_at): dose or concentration left out as unconfirmed
Settings: ProbeSet 11747889_x_at; LIST B

SMILES: Nc1ccc(-c2cccs2)cc1NC(=O)c1ccc2c(c1)cc(C1CC1)n2CCN1CCOCC1 [ACY-1035]
- RFU, SH3YL1: 65.52 RFU
